Measurements: patent US6592899B2, “PLA/PLGA oligomers combined with block copolymers for enhancing solubility of a drug in water” (Macromed Incorporated, priority 2001, dated 2003)
Converted amounts (≈) assume the structure as drawn.

How the values were obtained:
[1] = Amphotericin B solubility in triblock copolymer solution with or without PLA oligomers (dialysis preparation); type: physicochemical
Method: The mixture was added to dialysis tubing with a 3500 Dalton molecular weight cutoff and dialyzed against reverse osmosis deionized water (pH=2) overnight. The dialysate was then exchanged for reverse osmosis deionized water and dialyzed overnight. The reported solubility of amphotericin B in water is 3 μg/mL. […] The maximum concentration of amphotericin B in the mixture of PLA oligomers and the triblock copolymer was improved greater then 10 fold than that in the triblock copolymer alone.

[2] = cited from earlier work
[3] = Solution stability of paclitaxel in Me-PEG-PLGA diblock copolymer with or without PLA oligomer; type: physicochemical; conditions: 40 mg paclitaxel, 2 mL water
Method: The PLA oligomers prepared in Example 4 (75 mg) were added to 600 mg of Me-PEG-PLGA diblock copolymer prepared in Example 9, 40 mg of paclitaxel, and 2 mL of reverse osmosis deionized water. […] The solution was then filtered through a 0.2 μm filter. […] Precipitate began to appear within 1 day from the Me-PEG-PLGA diblock copolymer system alone, while the solution containing the PLA oligomer maintained paclitaxel in solution and remained clear for more than 2 days.

[4] = Solution stability of paclitaxel in PLGA-PEG-PLGA triblock copolymer with or without PLA oligomer; type: physicochemical; conditions: 40 mg paclitaxel, 2 ml water, 0.2 μm filtered
Description: The solution stability enhancing properties of PLA oligomers are illustrated in this example. […] The solution was then filtered through a 0.2 μm filter. […] A precipitate appeared within 1 day with the PLGA-PEG-PLGA triblock copolymer system alone, while the solution containing the PLA oligomer maintained paclitaxel in solution and remained clear for more than 3 days.

In the case of C[C@@H]1[C@H](O)[C@@H](C)/C=C/C=C/C=C/C=C/C=C/C=C/C=C/[C@H](O[C@@H]2O[C@H](C)[C@@H](O)[C@H](N)[C@@H]2O)C[C@@H]2O[C@](O)(C[C@@H](O)C[C@@H](O)[C@H](O)CC[C@@H](O)C[C@@H](O)CC(=O)O[C@H]1C)C[C@H](O)[C@H]2C(=O)O [amphotericin B], the “improvement of maximum concentration over the triblock copolymer alone” value ([1]; mixture of PLA oligomers and the triblock copolymer) is given as > 10 fold, the solubility ([1]; triblock copolymer solution of Example 1 (entry 1), without PLA oligomers) is given as 0.15 mg/mL (≈ 162 µM) and the “reported solubility in water” value [2] is given as 0.003 mg/mL.

With CC(=O)O[C@H]1C(=O)[C@@]2(C)[C@H]([C@H](OC(=O)c3ccccc3)[C@]3(O)C[C@H](OC(=O)[C@H](O)[C@@H](NC(=O)c4ccccc4)c4ccccc4)C(C)=C1C3(C)C)[C@]1(OC(C)=O)CO[C@@H]1C[C@@H]2O [paclitaxel] the “time paclitaxel maintained in solution and remained clear” value ([3]; Me-PEG-PLGA diblock copolymer (600 mg) with PLA oligomer (75 mg)) was “more than 2 days”, the “time until precipitate began to appear” value ([3]; Me-PEG-PLGA diblock copolymer system alone (600 mg)) was ≤ 1 days and the “time paclitaxel maintained in solution and remained clear” value ([4]; PLGA-PEG-PLGA triblock copolymer (600 mg) with PLA oligomer (75 mg)) was “more than 3 days”. The “time until a precipitate appeared” value ([4]; PLGA-PEG-PLGA triblock copolymer system alone (600 mg)) was ≤ 1 days.
